# Laboratory results as given in patent EP0297456A2, “Immunosuppressant peptides” (MERRELL DOW PHARMACEUTICALS INC., priority 1987, dated 1989).
# How the values were obtained:
# [1] = system: Mixed Lymphocyte Cultures (C57BL/6 and DBA/2 leukocytes); experiment: Inhibition of ³H-thymidine incorporation in mixed lymphocyte cultures; type: cell-based; settings: 120 hour incubation
# Procedure: Inhibition of ³H-Thymidine Incorporation in Mixed Lymphocyte Cultures by Various Peptides
# Spleens were aseptically removed and teased apart in RPMI 1640 culture media to obtain single cell suspensions. Erythrocytes were lysed by suspending cells in ACK buffer (0.155 M NH₄Cl, 0.1 mM EDTA, 0.01 M KHCO₃) and the remaining leukocytes washed. C57BL/6 (5 x 10⁵cells) and DBA/2 (5 x 10⁵cells) leukocytes were co-cultured in 0.1 ml RPMI-1640, supplemented with 2% fetal calf serum (FCS), in 96-well microtiter plates. Various concentrations of peptides were added at the initiation of cell culture. Following a 120 hour incubation (37°C), including a pulse with 1 µCi of [³H]TdR in the final 18 hours of culture, the cells were harvested with an automated cell harvester unit onto filter paper strips and placed in ACS scintillation fluid (Amersham, Oakville, Ontario). The amount of [³H]TdR incorporation was then measured in a Beckman LS 7800 liquid scintillation counter.
# [2] = system: Anti-T₃ Stimulated Lymphocytes (Human peripheral blood mononuclear leukocytes MNL); experiment: Inhibition of ³H-thymidine incorporation in anti-T₃ stimulated lymphocytes; type: cell-based; settings: 72 hour incubation
# Procedure: Inhibition of ³H-Thymidine Incorporation in Anti-T₃ Stimulated Lymphocytes by Various Peptides
# Human peripheral blood mononuclear leukocytes MNL were isolated by Ficoll-Hypaque density sedimentation. MNL ([…]) were cultured with anti-T₃ (1:10,000 dilution; Ortho Diagnostics) in 0.1 ml DMEM, supplemented with 2% FCS, in 96-well microtiter plates. Following a 72 hour incubation (37°C), including a pulse with 1 µCi of [³H]TdR in the final 18 hours of culture, the cells were harvested and counted as described in Example 6.
substance,measurement,setting,value
"H-Glu-Val-Val-Leu-Gln-Asn-Arg-Arg-Gly-Leu-Leu-OH (H-EVVLQNRRGLL-OH) [Example 4, peptide]",% Inhibition,[1]; 4 µM BSA-conjugated peptide,28%
same,³H-Thymidine Incorporation (cpm),[1]; 4 µM BSA-conjugated peptide,5751 ± 407 cpm
same,% Inhibition,[1]; 8 µM BSA-conjugated peptide,54%
same,³H-Thymidine Incorporation (cpm),[1]; 8 µM BSA-conjugated peptide,3063 ± 372 cpm
same,% Inhibition,[2]; 4 µM BSA-conjugated peptide,5%
same,³H-Thymidine Incorporation (cpm),[2]; 4 µM BSA-conjugated peptide,54331 ± 4717 cpm
same,% Inhibition,[2]; 8 µM BSA-conjugated peptide,11%
same,³H-Thymidine Incorporation (cpm),[2]; 8 µM BSA-conjugated peptide,39248 ± 5251 cpm
"H-LQNRRGLDLLFLKEGGL-NH2 [Example 3, peptide]",% Inhibition,[1]; 12 µM BSA-conjugated peptide,57%
same,³H-Thymidine Incorporation (cpm),[1]; 12 µM BSA-conjugated peptide,3417 ± 263 cpm
same,% Inhibition,[1]; 24 µM BSA-conjugated peptide,80%
same,³H-Thymidine Incorporation (cpm),[1]; 24 µM BSA-conjugated peptide,1328 ± 421 cpm
same,% Inhibition,[2]; 12 µM BSA-conjugated peptide,45%
same,³H-Thymidine Incorporation (cpm),[2]; 12 µM BSA-conjugated peptide,31667.±.4729 cpm
same,% Inhibition,[2]; 24 µM BSA-conjugated peptide,68%
same,³H-Thymidine Incorporation (cpm),[2]; 24 µM BSA-conjugated peptide,14027 ± 867 cpm
"H-LRKLRKRLLRDADDL-NH2 [Example 1, peptide]",% Inhibition,[1]; 9 µM BSA-conjugated peptide,59%
same,³H-Thymidine Incorporation (cpm),[1]; 9 µM BSA-conjugated peptide,3267 ± 457 cpm
same,% Inhibition,[1]; 18 µM BSA-conjugated peptide,73%
same,³H-Thymidine Incorporation (cpm),[1]; 18 µM BSA-conjugated peptide,1800 ± 412 cpm
same,% Inhibition,[2]; 9 µM BSA-conjugated peptide,33%
same,³H-Thymidine Incorporation (cpm),[2]; 9 µM BSA-conjugated peptide,38521 ± 5349 cpm
same,% Inhibition,[2]; 18 µM BSA-conjugated peptide,50%
same,³H-Thymidine Incorporation (cpm),[2]; 18 µM BSA-conjugated peptide,21984 ± 3824 cpm
"H-TRLTRKRGLKLATAL-NH2 [Example 2, peptide]",% Inhibition,[1]; 14 µM BSA-conjugated peptide,45%
same,³H-Thymidine Incorporation (cpm),[1]; 14 µM BSA-conjugated peptide,4406 ± 848 cpm
same,% Inhibition,[1]; 28 µM BSA-conjugated peptide,67%
same,³H-Thymidine Incorporation (cpm),[1]; 28 µM BSA-conjugated peptide,2209 ± 1471 cpm
same,% Inhibition,[2]; 14 µM BSA-conjugated peptide,23%
same,³H-Thymidine Incorporation (cpm),[2]; 14 µM BSA-conjugated peptide,44151 ± 2151 cpm
same,% Inhibition,[2]; 28 µM BSA-conjugated peptide,54%
same,³H-Thymidine Incorporation (cpm),[2]; 28 µM BSA-conjugated peptide,20041 ± 3331 cpm
